Reference: patent publication US9198846B2, “Basic amino acid derivative” (AJINOMOTO CO., INC., priority 2012, dated 2015)

Experiment: Gelling ability of basic amino acid derivatives (test tube tilting, visual appearance)
Assay type: physicochemical
Set-up: key to gel appearance: GT: transparent gel; GTL: translucent gel; GO: opaque gel
Settings: heated to 100° C., stood at 25° C. for 2 hr
Protocol: The gelling ability of various basic amino acid derivatives prepared in Production Examples 1-4, 7, 9 and 10 was confirmed. Test tube equipped with a cover was filled with water, saline, phosphate buffered saline (hereinafter indicated as PBS), and aqueous NaCl solution or aqueous KCl solution, and a basic amino acid derivative was added at various concentrations. The mixture was heated to 100° C. to achieve homogeneous dissolution, and stood at 25° C. for 2 hr. After allowing to cool, the test tube was tilted, and the absence of fluidity was judged as gellation, and the appearance was visually observed.
Abbreviations mean the following. • GT: transparent gel • GTL: translucent gel • GO: opaque gel

| SMILES | gel appearance (0.1M aqueous KCl solution) | minimum gelling concentration (0.1M aqueous KCl solution) [g/L] | gel appearance (0.1M aqueous NaCl solution) | minimum gelling concentration (0.1M aqueous NaCl solution) [g/L] | gel appearance (1.0M aqueous KCl solution) | minimum gelling concentration (1.0M aqueous KCl solution) [g/L] | gel appearance (1.0M aqueous NaCl solution) | minimum gelling concentration (1.0M aqueous NaCl solution) [g/L] | gel appearance (PBS) | minimum gelling concentration (PBS) [g/L] | gel appearance (saline) | minimum gelling concentration (saline) [g/L] | gel appearance (water) | minimum gelling concentration (water) [g/L] |
| --- | --- | --- | --- | --- | --- | --- | --- | --- | --- | --- | --- | --- | --- | --- |
| CCCCCCCCCCCC(=O)NCCCC[C@H](NC(=O)CCCCCCC(=O)[O-])C(=O)O.[Na+] [Production Example 7, N^ε-lauroyl-N^α-(7-carboxyheptanoyl)-L-lysine monosodium salt] | GT | 30 | GTL | 30 | GT | 4 | GT | 4 | GT | 30 | GT | 30 | – | – |
| CCCCCCCCCCCC(=O)NCCCC[C@H](NC(=O)CCCCCCCCC(=O)[O-])C(=O)O.[Na+] [Production Example 9, N^ε-lauroyl-N^α-(9-carboxynonanoyl)-L-lysine monosodium salt] | GT | 4 | GT | 4 | GT | 4 | GT | 4 | GT | 4 | GT | 4 | GTL | 30 |
| CCCCCCCCCCCC(=O)NCCCC[C@H](NC(=O)CC(CCCCCCCCCC)C(=O)[O-])C(=O)OCC.[Na+] (stereo partly drawn) [Production Example 1, N^ε-lauroyl-N^α-(3-carboxytridecanoyl)-L-lysine ethyl ester sodium salt] | GTL | 15 | GTL | 10 | – | – | – | – | – | – | GTL | 20 | GTL | 25 |
| CCCCCCCCCCCC(=O)NCCCC[C@H](NC(=O)CC(CCCCCCCCCC)C(=O)[O-])C(=O)OCC.[K+] (stereo partly drawn) [Production Example 2, N^ε-lauroyl-N^α-(3-carboxytridecanoyl)-L-lysine ethyl ester potassium salt] | GTL | 10 | GTL | 10 | – | – | – | – | – | – | GTL | 20 | GTL | 20 |
| CCCCCCCCCCCC(=O)NCCCC[C@H](NC(=O)CC(CCCCCCCCCC)C(=O)[O-])C(=O)O.[K+] (stereo partly drawn) [Production Example 4, N^ε-lauroyl-N^α-(3-carboxytridecanoyl)-L-lysine monopotassium salt] | GTL | 40 | GTL | 20 | GO | 20 | – | – | GO | 60 | GTL | 50 | GTL | 60 |
| CCCCCCCCCCCC(=O)NCCCC[C@H](NC(=O)CC(CCCCCCCCCC)C(=O)[O-])C(=O)O.[Na+] (stereo partly drawn) [Production Example 3, N^ε-lauroyl-N^α-(3-carboxytridecanoyl)-L-lysine monosodium salt] | GTL | 20 | GTL | 20 | GO | 20 | – | – | GO | 60 | GTL | 50 | GTL | 50 |
| CCCCCCCCCCCC(=O)NCCCC[C@H](NC(=O)CCCCCCCCC(=O)[O-])C(=O)O.[K+] [Production Example 10, N^ε-lauroyl-N^α-(9-carboxynonanoyl)-L-lysine monopotassium salt] | GT | 4 | GT | 10 | GT | 4 | GT | 4 | GT | 4 | GT | 4 | GTL | 30 |
